Source: ChEMBL document CHEMBL3817755, “Design, synthesis and biological evaluation of indazolepyrimidine based derivatives as anticancer agents with anti-angiogenic and antiproliferative activities” (Medchemcomm, 2016)

Key:
Assay type in all cases: functional
[1] = Growth inhibition of human HL-60(TB) cells at 10 uM after 48 hrs by SRB assay; conditions: HL-60, 48 h, read-out: GI
[2] = Growth inhibition of human MOLT4 cells at 10 uM after 48 hrs by SRB assay; conditions: MOLT-4, 48 h, read-out: GI
[3] = Growth inhibition of human RPMI8226 cells at 10 uM after 48 hrs by SRB assay; conditions: RPMI-8226, 48 h, read-out: GI
A549 = assay: Growth inhibition of human A549/ATCC cells at 10 uM after 48 hrs by SRB assay; conditions: A549, 48 h, read-out: GI
[4] = Growth inhibition of human SW620 cells at 10 uM after 48 hrs by SRB assay; conditions: SW-620, 48 h, read-out: GI
[5] = Growth inhibition of human SF268 cells at 10 uM after 48 hrs by SRB assay; conditions: SF-268, 48 h, read-out: GI
[6] = Growth inhibition of human SF295 cells at 10 uM after 48 hrs by SRB assay; conditions: SF-295, 48 h, read-out: GI
[7] = Growth inhibition of human SNB19 cells at 10 uM after 48 hrs by SRB assay; conditions: SNB-19, 48 h, read-out: GI
[8] = Growth inhibition of human SNB75 cells at 10 uM after 48 hrs by SRB assay; conditions: SNB-75, 48 h, read-out: GI
MDA-MB-435 = assay: Growth inhibition of human MDA-MB-435 cells at 10 uM after 48 hrs by SRB assay; conditions: MDA-MB-435, 48 h, read-out: GI
SK-MEL-2 = assay: Growth inhibition of human SK-MEL-2 cells at 10 uM after 48 hrs by SRB assay; conditions: SK-MEL-2, 48 h, read-out: GI
[9] = Growth inhibition of human UACC257 cells at 10 uM after 48 hrs by SRB assay; conditions: UACC-257, 48 h, read-out: GI
[10] = Growth inhibition of human OVCAR8 cells at 10 uM after 48 hrs by SRB assay; conditions: OVCAR-8, 48 h, read-out: GI
[11] = Growth inhibition of human NCI-ADR-RES cells at 10 uM after 48 hrs by SRB assay; conditions: read-out: GI
MDA-MB-231 = assay: Growth inhibition of human MDA-MB-231 cells at 10 uM after 48 hrs by SRB assay; conditions: MDA-MB-231, 48 h, read-out: GI
[12] = Growth inhibition of human BT549 cells at 10 uM after 48 hrs by SRB assay; conditions: BT-549, 48 h, read-out: GI
CCRF-CEM = assay: Growth inhibition of human CCRF-CEM cells at 10 uM after 48 hrs by SRB assay; conditions: read-out: GI

| Compound | inhibition of growth at 10 µM [1] [%] | inhibition of growth at 10 µM [2] [%] | inhibition of growth at 10 µM [3] [%] | inhibition of growth at 10 µM (A549) [%] | inhibition of growth at 10 µM [4] [%] | inhibition of growth at 10 µM [5] [%] | inhibition of growth at 10 µM [6] [%] | inhibition of growth at 10 µM [7] [%] | inhibition of growth at 10 µM [8] [%] | inhibition of growth at 10 µM (MDA-MB-435) [%] | inhibition of growth at 10 µM (SK-MEL-2) [%] | inhibition of growth at 10 µM [9] [%] | inhibition of growth at 10 µM [10] [%] | inhibition of growth at 10 µM [11] [%] | inhibition of growth at 10 µM (MDA-MB-231) [%] | inhibition of growth at 10 µM [12] [%] | inhibition of growth at 10 µM (CCRF-CEM) [%] |
| --- | --- | --- | --- | --- | --- | --- | --- | --- | --- | --- | --- | --- | --- | --- | --- | --- | --- |
| Fc1ccc(Nc2nccc(Nc3ccc4[nH]ncc4c3)n2)cc1 | 31 | 74 | 59 | 43 | 31 | 29 | 11 | 12 | 15 | 25 | 24 | 26 | 59 | 32 | 21 | 33 |  |
| NS(=O)(=O)c1ccc(Nc2nccc(Nc3ccc4[nH]ncc4c3)n2)cc1 | 2 | 12 | 16 | 11 | -11 | 12 | 2 | 4 | 22 | 1 | 4 | 14 | 18 | -6 | 14 | -6 | 28 |
